From US10350204B2, “Methods for treating cognitive deficits associated with fragile X syndrome” (Wisconsin Alumni Research Foundation, priority 2015, dated 2019)

What was measured:
[1] = test system: Fmr1 KO mice; assay: Novel object recognition (NOR) test; type: in vivo, mouse
Description: (§1) All animal procedures were performed according to protocols approved by the University of Wisconsin-Madison Care and Use Committee. All mice were on C57B/L6 genetic background. The Fmr1 KO/Nestin-GFP mice (Fmr1−/y::Nestin-GFP) were created by crossing female Fmr1 heterozygous KO mice (Fmr1+/−) (59) with homozygous Nestin-GFP transgenic males (60). Generation of FMRP inducible conditional mutant mice (Fmr1loxP/y::Nestin-CreERT2::Rosa26-tdt) and tamoxifen injections to induce recombination were performed as described (12). To induce recombination, mice (6-weeks old) received Tamoxifen (Sigma-Aldrich) daily for 5 d (160 mg/kg) as described (12). Nutlin-3 (10 mg/kg) was given to 7-8 week-old mice or 20-week old mice through IP injections every other day for 5 injections and sacrificed at either 24 hours, 4 weeks, 12, or 20 weeks after the last injection. For NSC differentiation analysis, mice also received four BrdU injections (100 mg/kg) between day 2 and 3 of Nutlin-3 injections. To induce recombination in FMRP inducible conditional mutant mice (Fmr1^loxP/y::Nestin-CreER^T2::Rosa26-tdt) mice, mice 6-weeks old male mice received Tamoxifen (Sigma-Aldrich) daily for 5 days (160 mg kg-1 i.p., 30 mg ml^−1 in 10% ethanol mixed with sunflower oil, SigmaAldrich) based on a published procedure (13). BrdU (Sigma-Aldrich, B5002) was made in a concentration of 20 mg/mL in PBS. Nutlin-3 (Nt3, Cayman Chemical, 10004372) was made in a concentration of 100 mg/mL in dimethyl sulfoxide (DMSO).
This test is based on the natural propensity of rodents to preferentially explore novel objects over familiar ones. The experimental procedure was performed as previously described (38). On the first day, mice were habituated for 10 min to the maze in which the task was performed. On the second day, mice were put back in the maze for 10 min, and two identical objects were presented. 24 hours later, one of the familiar objects was replaced with a novel object, and the mice were again placed in the maze and were allowed to explore for 10 min, and the total time spent exploring each of the two objects (novel and familiar) was measured. The discrimination index was calculated as the difference between the percentages of time spent investigating the novel object and the time spent investigating the familiar objects: discrimination index=(novel object exploration time/total exploration time×100)−(familiar object exploration time/total exploration time×100). All experiments were videotaped and scored by scientists who were blinded to experimental conditions.

[2] = Open field activity test; type: in vivo, mouse; conditions: wildtype and Fmr1 KO mice; Nutlin-3 10 mg/kg, 5 injections
Description: as §1, with “To induce recombination in FMRP inducible conditional mutant mice (Fmr1^loxP/y::Nestin-CreER^T2::Rosa26-tdt) mice, mice 6-weeks old male mice received Tamoxifen (Sigma-Aldrich) daily for 5 days (160 mg kg-1 i.p., 30 mg ml^−1 in 10% ethanol mixed with sunflower oil, SigmaAldrich) based on a published procedure (13). BrdU (Sigma-Aldrich, B5002) was made in a concentration of 20 mg/mL in PBS. Nutlin-3 (Nt3, Cayman Chemical, 10004372) was made in a concentration of 100 mg/mL in dimethyl sulfoxide (DMSO).” left out
Mice were subjected to open field testing for evaluation of locomotor activity and general anxiety. Activity was recorded at 10-min intervals for total 30 min by means of a computer-operated tracking system (Omnitech Electronics Inc, USA) Total distance moved, and ratio of entry time into the Centre and periphery of arena were measured.

[3] = test system: Fmr1 KO and wildtype NPCs; assay: Cell death analysis (PI/Hoechst, CellTiter-Glo viability) of NPCs; type: cell-based, mouse; conditions: 2 μM Nutlin-3
Excerpt: Three different methods were used to assay cell death. Fluorescein isothiocyanate and propidium iodide (Annexin V-FITC Apoptosis Detection Kit, Sigma, #APOAF) were used to assess NSC apoptosis. Intact cells were Annexin V^−PI^−. Early and late apoptotic cells were Annexin V^+PI^− and Annexin V^+PI^+, respectively. Necrotic cells were Annexin V−PI+. The number of early apoptotic cells (Annexin V^+PI^−; Phase II) and late apoptotic cells (Annexin V^+PI^+, Phase I) were used to calculate the percentage of apoptotic cells. In a second method, propidium iodide (1 mg/mL) and […] (1 mM) were added to cultured cells for 15 min, followed by high content imaging analysis (Oppretta, GE) to quantify the percentage of Hoechst positive (all) cells that are PI positive (dead) cells. In the third method, Cell viability was measured using CellTiter-Glo Luminescent Cell Viability Assay (Promega). 2 μM Nutlin-3 (Nt3, Selleckchem, 51061) was added to proliferating aNPCs at 6 hours post-plating. Cells were then harvested 24 hours later with CellTiter-Glo buffer at room temperature. Signal intensity was immediately measured using a Glomax plate reader (Promega) according to manufacturer's instruction.

[4] = test system: Fmr1 KO and wildtype NPCs; assay: Differentiation assay of cultured NPCs (Tuj1 neurons, GFAP astrocytes); type: cell-based, mouse; conditions: 4 days
Description: NPCs were isolated from the dentate gyms of 8 to 10-week-old male Fmr1 KO mice and wild-type (wildtype) littermate controls based on our published methods (12, 64). Independently isolated cells serve as biological replicates. Proliferation and differentiation of NPCs was analyzed as described (11, 12, 61). We used only early passage cells (between passage 4 and 10) and only the same passage numbers of wildtype and Fmr1 KO cells. For each experiment, triplicate wells of cells were analyzed, and results were averaged as one data point (n=1). At least 3 independent biological replicates were used (n=3) for statistical analyses.
Proliferation and differentiation of aNPCs were analyzed using our published methods (Guo et al., Nature Med. (2011); Guo et al., Neuron 70, 924-938 (2011); Luo et al., PLoS Genet 6 (2010); Liu et al., Cell Stem Cell 6 (2010)). We used only early passage cells (between passage 4 and 10) and only the same passage numbers of wild type (WT) and Fmr1 KO cells. For each experiment, triplicate wells of cells were analyzed, and results were averaged as one data point (n=1). At least 3 independent experiments (n=3) were performed and used for statistical analyses for each analysis. […] For the differentiation assay, at 24 h post-plating, cells were changed into differentiation medium, Neurobasal A, containing 5 μM forskolin (Sigma-Aldrich, F-6886) and 1 μM retinoic acid (Sigma-Aldrich, R-2625) for 4 d, followed by fixation with 4% paraformaldehyde for 30 min, and then washed with Dulbecco's Phosphate Buffered Saline (DPBS), pH 7.4 for 30 min. Immunocytochemistry staining was carried out as described (Guo et al., Nature Med. (2011); Guo et al., Neuron 70, 924-938 (2011); Luo et al., PLoS Genet 6 (2010); Liu et al., Cell Stem Cell 6 (2010)). Briefly, cells were preblocked using DPBS containing 5% normal goat serum (VECTOR, S-1000) and 0.1% Triton X-100 for 30 min, followed by overnight incubation with primary antibodies: mouse anti-Tuj1 (1:1000, Promega, G712A) and rabbit anti-S100β (1:1000, Dako, Z0334).
After washing with Dulbecco s Phosphate Buffered Saline (DPBS), cells were incubated with secondary antibodies that included goat anti-mouse 568 (1:1000, Invitrogen, A11031), goat anti-rabbit 488 (1:1000, Invitrogen, A11008) followed by counterstaining with the fluorescent nuclear dye 4′,6-diamidino-2′-phenylindole dihydrochloride (DAPI, Sigma-Aldrich, B2261). […] (VECTOR, H-1000), the numbers of Tuj1, GFAP-positive cells were quantified using an Olympus BX51 microscope equipped with a MicroFire digital camera (Optronics) and a motorized stage using a 20× objective lens. The quantification was carried out using an unbiased stereology method with assistance from StereoInvestigator software (MBF Biosciences). The percentage of differentiated cells was calculated as the number of Tuj1- or GFAP-labeled cells divided by the total number of cells stained with DAPI.

[5] = test system: Fmr1 KO mice; assay: Novel location test (NLT); type: in vivo, mouse; conditions: for spatial memory deficits in the novel location test, long-term effect: tested at 24 weeks old
Description: as §1
This test measures spatial memory through an evaluation of the ability of mice to recognize the new location of a familiar object with respect to spatial cues. The experimental procedure was performed as previously described (65). The mice were exposed to 2 identical objects for 6 minutes during the acquisition phase 3 times and tested at 3 minutes later. Object preference was evaluated during this session. During the trial session, one of the objects was moved to a novel location, and the mice were allowed to explore the objects for 6 minutes, and the total time spent exploring each object was measured. Exploration was considered as any investigative behavior (i.e., head orientation, sniffing occurring within <1.0 cm) or deliberate contact occurring with each object. The discrimination index was calculated as the percentage of time spent investigating the object in the new location minus the percentage of time spent investigating the object in the old location: discrimination index=(Novel Location exploration time/total exploration time×100)−(old Location exploration time/total exploration time×100). All experiments were videotaped and scored by scientists who were blinded to experimental conditions.

[6] = Fmr1 KO mice treated at 20 weeks old (middle aged), 24-weeks-old at test
[7] = Fmr1 KO mice, treated as young adults, tested 4 weeks later
[8] = wildtype mice, tested 4 weeks after treatment
[9] = Fmr1 KO NPCs, 1 μM MK2206, 2 μM Nutlin-3, 1 μM RG7112
[10] = wildtype NPCs, 1 μM MK2206, 2 μM Nutlin-3

COc1ccc(C2=N[C@@H](c3ccc(Cl)cc3)[C@@H](c3ccc(Cl)cc3)N2C(=O)N2CCNC(=O)C2)c(OC(C)C)c1 [Nutlin-3]
cognitive deficits in the NOR test, long-term effect ([1]; Fmr1 KO mice treated at 8 weeks old, tested at 24 weeks old): long-term effects to fully rescue cognitive deficits
cognitive deficits in the NOR test [1, 6]: fully rescued cognitive deficits
performance on the novel object recognition test (discrimination index) [1, 7]: rescued performance
performance on the novel object recognition test (discrimination index) [1, 8]: no significant effect on wildtype mice
locomotor activity and anxiety (total distance, center/periphery entry ratio) [2]: no significant effect
cell death and survival ([3]; Fmr1 KO NPCs): did not exhibit significant effects on cell death and survival
cell death and survival ([3]; wildtype NPCs): did not exhibit significant effects on cell death and survival
astroglial differentiation (GFAP+) [4, 9]: specifically rescued astroglial differentiation phenotypes
neuronal differentiation (Tuj1+) [4, 9]: rescued neuronal differentiation phenotypes
astroglial differentiation (GFAP+) [4, 10]: without a significant effect on wildtype NPCs
neuronal differentiation (Tuj1+) [4, 10]: without a significant effect on wildtype NPCs
spatial memory deficits in the novel location test, long-term effect ([5]; Fmr1 KO mice treated at 8 weeks old): long-term effects to fully rescue spatial memory deficits
spatial memory deficits in the novel location test [5, 6]: fully rescued spatial memory deficits
performance on the novel location test (discrimination index) [5, 7]: rescued performance
spatial memory deficits in the novel location test, long-term effect ([5]; Fmr1 conditional KO mice treated at 8 weeks old): long-term effects to fully rescue spatial memory deficits
performance on the novel location test (discrimination index) [5, 8]: no significant effect on wildtype mice
